Laboratory results reported in patent publication US20230093766A1, “COMPOSITIONS AND METHODS FOR COATING BONE GRAFTS” (BOARD OF REGENTS OF THE UNIVERSITY OF NEBRASKA, priority 2020, published 2023).

Assays:
[1] = target: T1, BMP type I receptor ALK2 (Homo sapiens, UniProt Q04771); conditions: cited from earlier work
T1 sequence (Q04771 21-509): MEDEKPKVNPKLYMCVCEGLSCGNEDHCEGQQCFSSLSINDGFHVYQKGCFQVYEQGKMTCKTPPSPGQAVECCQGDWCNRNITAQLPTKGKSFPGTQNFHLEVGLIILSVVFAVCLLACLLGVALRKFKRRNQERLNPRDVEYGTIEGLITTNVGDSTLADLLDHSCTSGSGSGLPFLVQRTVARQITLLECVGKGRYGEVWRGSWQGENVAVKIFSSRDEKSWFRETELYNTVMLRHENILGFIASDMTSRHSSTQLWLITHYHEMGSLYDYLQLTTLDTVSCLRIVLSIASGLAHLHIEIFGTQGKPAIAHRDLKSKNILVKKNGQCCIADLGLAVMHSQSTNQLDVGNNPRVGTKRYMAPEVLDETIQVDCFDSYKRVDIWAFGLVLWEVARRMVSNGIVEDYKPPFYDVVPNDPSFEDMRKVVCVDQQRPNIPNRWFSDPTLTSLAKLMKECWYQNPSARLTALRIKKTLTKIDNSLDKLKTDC

[2] = target: BMP type I receptor ALK3 (Homo sapiens, UniProt P36894); conditions: cited from earlier work
[3] = system: TGF-β-dependent epithelial-mesenchymal transition (EMT); conditions: cited from earlier work
[4] = system: periosteal progenitor cells isolated from autograft periosteum; assay: Osteogenic differentiation of periosteal progenitor cells, BMP-2 in combination with TGF-β inhibitor; format: cell-based
Description: To test the potential reciprocal regulation of both BMP and TGF-β signaling in repair, periosteal progenitor cells were isolated from autograft periosteum (Wang, et al. (2010) Am. J. Pathol., 177:3100-3111; Huang, et al. (2014) Mol. Ther., 22:430-439; Huang, et al. (2014) PLoS One, 9:e100079). The osteogenic differentiation of BMP-2 ([…]) in combination with TGF-β inhibitors was examined. Corilagin (1 μm) potentiated the effects of BMP-2 on osteoblastic differentiation as evidenced by increased alkaline phosphatase (ALP) staining and enhanced expression of ALP and osterix (Osx) in 10-day cultures (FIG. 7).

[5] = target: BMP type I receptor ALK6 (Homo sapiens, UniProt O00238); conditions: cited from earlier work
[6] = target: T2, Tgfbrl/ALK5 kinase (Homo sapiens, UniProt P36897); conditions: cited from earlier work
T2 sequence (P36897 34-503): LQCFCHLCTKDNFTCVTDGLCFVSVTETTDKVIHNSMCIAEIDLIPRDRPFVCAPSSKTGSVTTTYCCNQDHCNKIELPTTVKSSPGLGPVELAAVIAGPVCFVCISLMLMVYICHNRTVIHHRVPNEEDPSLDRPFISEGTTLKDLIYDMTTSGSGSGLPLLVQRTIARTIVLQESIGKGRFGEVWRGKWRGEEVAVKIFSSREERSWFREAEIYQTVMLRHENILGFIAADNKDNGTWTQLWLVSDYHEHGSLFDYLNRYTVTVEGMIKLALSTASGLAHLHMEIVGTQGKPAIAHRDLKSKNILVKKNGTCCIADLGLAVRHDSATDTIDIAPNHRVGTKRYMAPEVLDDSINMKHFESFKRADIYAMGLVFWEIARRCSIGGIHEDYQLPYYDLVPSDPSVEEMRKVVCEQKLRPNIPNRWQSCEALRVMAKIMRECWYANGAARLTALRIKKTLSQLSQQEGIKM

[7] = system: normal cells and tissues; conditions: cited from earlier work
[8] = system: fibrosis in lung; conditions: mouse model; cited from earlier work
[9] = BMP-2 peptide loading and in vitro release from electrospray-coated bone allografts; format: physicochemical; conditions: from PLGA 50:50 coated allograft, during the first 4 weeks
Description: For quantification of peptide loading and release kinetics, 5 mg FITC labeled BMP-2 peptide was dispersed in 5% (w/v) of PLGA in DCM in glass vials and used for electrospray-mediated allograft coating. The amount of BMP-2 peptide loaded per graft was calculated from the difference in the weights of the bone samples before and after electrospray coating as well as accounting for the polymer:peptide ratio of 50:1 (Boda, et al. (2019) Acta Biomater., 85:282-93). The duration of the electrospray coating was adjusted to achieve an increase of 2-3 mg in the weights of the electrospray coated bone samples as compared to the corresponding uncoated ones. The FITC-labeled peptide release from the bone allograft was recorded by measuring the fluorescence intensities of the buffer aliquots at regular intervals using excitation and emission filters of 485 and 528 nm, respectively.
Similarly, to measure the peptide loading and release kinetics from PCL-gelatin coated allografts, the PCL-gelatin HFIP solution containing 5 mg FITC labeled BMP-2 peptide was used for coating. PCL-Gelatin (2.5 wt % each) and 5 mg of BMP-2 peptide were mixed by ultrasonication. […] The peptide release from the PCL-gelatin bone allograft was recorded by measuring the fluorescence intensities of the buffer aliquots at regular intervals (Boda, et al. (2019) Acta Biomater., 85:282-93). […]

[10] = system: receptors of BMPs; conditions: cited from earlier work
[11] = Corilagin (1 μm) with BMP-2 (50 μg/ml), 10-day cultures

Chain of BMP type I receptor ALK6 (O00238 14-502): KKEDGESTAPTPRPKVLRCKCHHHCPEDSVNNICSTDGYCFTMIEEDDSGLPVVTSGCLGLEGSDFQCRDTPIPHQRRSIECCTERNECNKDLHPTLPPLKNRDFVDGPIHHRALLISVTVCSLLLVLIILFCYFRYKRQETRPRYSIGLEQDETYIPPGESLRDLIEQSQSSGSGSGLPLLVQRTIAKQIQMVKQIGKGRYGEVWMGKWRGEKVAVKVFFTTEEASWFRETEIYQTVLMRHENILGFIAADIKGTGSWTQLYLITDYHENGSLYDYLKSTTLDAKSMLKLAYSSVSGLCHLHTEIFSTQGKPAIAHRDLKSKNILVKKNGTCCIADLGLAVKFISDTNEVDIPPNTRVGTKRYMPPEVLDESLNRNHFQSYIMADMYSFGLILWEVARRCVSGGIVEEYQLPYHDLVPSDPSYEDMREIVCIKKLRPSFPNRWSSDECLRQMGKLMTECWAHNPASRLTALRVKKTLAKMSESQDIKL
Chain of BMP type I receptor ALK3 (P36894 24-532): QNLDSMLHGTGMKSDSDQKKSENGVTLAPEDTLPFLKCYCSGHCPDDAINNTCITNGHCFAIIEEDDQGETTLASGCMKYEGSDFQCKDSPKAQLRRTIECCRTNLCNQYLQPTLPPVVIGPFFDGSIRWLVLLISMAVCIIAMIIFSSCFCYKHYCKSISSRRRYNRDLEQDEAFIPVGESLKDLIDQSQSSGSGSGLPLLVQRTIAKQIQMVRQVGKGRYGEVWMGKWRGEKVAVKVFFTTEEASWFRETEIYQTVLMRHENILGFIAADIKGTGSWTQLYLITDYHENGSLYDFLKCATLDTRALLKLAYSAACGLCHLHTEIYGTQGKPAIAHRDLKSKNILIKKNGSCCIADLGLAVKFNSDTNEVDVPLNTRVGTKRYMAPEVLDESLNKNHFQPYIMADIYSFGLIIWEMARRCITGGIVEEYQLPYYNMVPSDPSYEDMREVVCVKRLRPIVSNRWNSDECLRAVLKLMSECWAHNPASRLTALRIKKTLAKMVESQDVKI

| Molecule | inhibition of BMP type I receptor ALK2 [1] | inhibition of BMP type I receptor ALK3 [2] | TGF-β-dependent epithelial-mesenchymal transition (EMT) [3] | alkaline phosphatase (ALP) staining [4, 11] | effects of BMP-2 on osteoblastic differentiation [4, 11] | expression of ALP [4, 11] | expression of osterix (Osx) [4, 11] | synergism with BMP-2 ([4]; FIG. 7, ALP and Osx expression after 10 days) | inhibition of BMP type I receptor ALK6 [5] | Tgfbrl/ALK5 kinase activity [6] | toxicity toward normal cells and tissues [7] | fibrosis in lung [8] | loaded peptide released [9] | binding and activation of the receptors of BMPs [10] |
| --- | --- | --- | --- | --- | --- | --- | --- | --- | --- | --- | --- | --- | --- | --- |
| O=C(O[C@@H]1O[C@@H]2COC(=O)c3cc(O)c(O)c(O)c3-c3c(cc(O)c(O)c3O)C(=O)O[C@H]([C@H]1O)[C@@H]2O)c1cc(O)c(O)c(O)c1 [Corilagin] | without inhibiting | without inhibiting | inhibits | increased | potentiated | enhanced | enhanced | strong synergism | without inhibiting | strongly inhibits | low level | attenuates | – | – |
| KIPKASSVPTELSAISTLYL (BMP-2 peptide) [short-chain BMP-2 mimetic peptide (Genscript)] | – | – | – | – | – | – | – | – | – | – | – | – | Nearly all | binds and activates |
